Measured values reported in patent US20190224166A1, “Compositions and Methods for Treating Muscle Loss” (Augusta University Research Institute, Inc., priority 2018, published 2019).

Tested on: quadriceps muscle
Assay: Proteomic analysis of quadriceps muscle of aged mice treated with 1-methyl-D-tryptophan (Table 1, TOPPGENE enrichment)
Assay type: in vivo
Procedure: Female mice 22 months of age were obtained from the National Institute on Aging and treated with saline (vehicle) or 1-methyl-D-tryptophan (1-MT, Sigma, 452483, lot#MKBZ1441V) at a low dose (10 mg/kg BW) or at a high dose (100 mg/kg BW). Mice were treated daily for 4 weeks. Treatments were administered i.p. with an injection volume of 0.2 ml following IACUC approved procedures. Mice were euthanized by CO2 overdose and muscles harvested for analysis. One quadriceps muscle was snap frozen for proteomics and the other quadriceps muscle fixed in buffered formalin for paraffin embedding and trichrome staining. The tibialis anterior was placed in PBS for amplex red assay.
The IDO inhibitor, 1-methyl-D-tryptophan, blocks kynurenine production and reduces levels of ROS in muscle.

- 1MT vs Control: E3 ubiquitin-protein ligase UBR4 (A2AN08, GN = Ubr4): 0.5
- 1MT vs Control: Ryanodine receptor 1 (E9PZQ0, GN = Ryr1): 0.6614
- 1MT vs Control: Hexokinase-2 (O08528, GN = Hk2): 0.3158
- 1MT vs Control: Dihydrolipoyl dehydrogenase, mitochondrial (O08749, GN = Dld): 0.8444
- 1MT vs Control: Branched-chain-amino-acid aminotransferase, mitochondrial (O35855, GN = Bcat2): 0.5
- 1MT vs Control: Polymerase I and transcript release factor (O54724, GN = Ptrf): 0.9
- 1MT vs Control: Phosphoglycerate mutase 2 (O70250, GN = Pgam2): 0.8457
- 1MT vs Control: Aspartate aminotransferase, cytoplasmic (P05201, GN = Got1): 0.8115
- 1MT vs Control: Aspartate aminotransferase, mitochondrial (P05202, GN = Got2): 0.6944
- 1MT vs Control: Glucose-6-phosphate isomerase (P06745, GN = Gpi): 0.8424
- 1MT vs Control: Malate dehydrogenase, mitochondrial (P08249, GN = Mdh2): 0.915
- 1MT vs Control: Superoxide dismutase [Mn], mitochondrial (P09671, GN = Sod2): 0.45
- 1MT vs Control: Fatty acid-binding protein, heart (P11404, GN = Fabp3): 0.6667
- 1MT vs Control: Calcium/calmodulin-dependent protein kinase type II subunit alpha (P11798, GN = Camk2a): 0.4444
- 1MT vs Control: cAMP-dependent protein kinase type II-alpha regulatory subunit (P12367, GN = Prkar2a): 0.8333
- 1MT vs Control: Malate dehydrogenase, cytoplasmic (P14152, GN = Mdh1): 0.7895
- 1MT vs Control: Selenium-binding protein 1 (P17563, GN = Selenbp1): 0.625
- 1MT vs Control: Glutathione S-transferase P 1 (P19157, GN = Gstp1): 0.7436
- 1MT vs Control: Thioredoxin-dependent peroxide reductase, mitochondrial (P20108, GN = Prdx3): 0.6875
- 1MT vs Control: Leukotriene A-4 hydrolase (P24527, GN = Lta4h): 0.6667
- 1MT vs Control: Retinal dehydrogenase 1 (P24549, GN = Aldh1a1): 0.375
- 1MT vs Control: Glutamate dehydrogenase 1, mitochondrial (P26443, GN = Glud1): 0.75
- 1MT vs Control: 26S proteasome non-ATPase regulatory subunit 7 (P26516, GN = Psmd7): 0.8333
- 1MT vs Control: Adenylosuccinate synthetase isozyme 1 (P28650, GN = Adssl1): 0.8583
- 1MT vs Control: Pyruvate dehydrogenase E1 component subunit alpha, somatic form, mitochondrial (P35486, GN = Pdha1): 0.5714
- 1MT vs Control: Enoyl-CoA delta isomerase 1, mitochondrial (P42125, GN = Eci1): 0.3333
- 1MT vs Control: Medium-chain specific acyl-CoA dehydrogenase, mitochondrial (P45952, GN = Acadm): 0.75
- 1MT vs Control: Carnitine O-acetyltransferase (P47934, GN = Crat): 0.3913
- 1MT vs Control: ADP/ATP translocase 1 (P48962, GN = Slc25a4): 0.4561
- 1MT vs Control: Long-chain specific acyl-CoA dehydrogenase, mitochondrial (P51174, GN = Acadl): 0.3269
- 1MT vs Control: Isocitrate dehydrogenase [NADP], mitochondrial (P54071, GN = Idh2): 0.3684
- 1MT vs Control: Adenylosuccinate lyase (P54822, GN = Adsl): 0.5172
- 1MT vs Control: Adenosine kinase (P55264, GN = Adk): 0.4545
- 1MT vs Control: Serine/threonine-protein phosphatase PP1-beta catalytic subunit (P62141, GN = Ppp1cb): 0.2857
- 1MT vs Control: Nuclease-sensitive element-binding protein 1 (P62960, GN = Ybx1): 0.6
- 1MT vs Control: Guanine nucleotide-binding protein subunit beta-2-like 1 (P68040, GN = Gnb2l1): 0.8889
- 1MT vs Control: Histidine triad nucleotide-binding protein 1 (P70349, GN = Hint1): 0.8667
- 1MT vs Control: Isocitrate dehydrogenase [NAD] subunit gamma 1, mitochondrial (P70404, GN = Idh3g): 0.4286
- 1MT vs Control: Fructose-1,6-bisphosphatase isozyme 2 (P70695, GN = Fbp2): 0.6078
- 1MT vs Control: Histone-lysine N-methyltransferase Smyd1 (P97443, GN = Smyd1): 0.8143
- 1MT vs Control: Fumarate hydratase, mitochondrial (P97807, GN = Fh): 0.7414
- 1MT vs Control: Acyl-protein thioesterase 1 (P97823, GN = Lypla1): 0.5
- 1MT vs Control: AMP deaminase 1 (Q3V1D3, GN = Ampd1): 0.86
- 1MT vs Control: UDP-glucose: glycoprotein glucosyltransferase 1 (Q6P5E4, GN = Uggt1): 0.2857
- 1MT vs Control: Creatine kinase S-type, mitochondrial (Q6P8J7, GN = Ckmt2): 0.3977
- 1MT vs Control: Sodium/potassium-transporting ATPase subunit alpha-2 (Q6PIE5, GN = Atp1a2): 0.5143
- 1MT vs Control: Calcium-binding mitochondrial carrier protein Aralar1 (Q8BH59, GN = Slc25a12): 0.3939
- 1MT vs Control: EH domain-containing protein 2 (Q8BH64, GN = Ehd2): 0.5714
- 1MT vs Control: Dihydrolipoyllysine-residue acetyltransferase component of pyruvate dehydrogenase complex, mitochondrial (Q8BMF4, GN = Dlat): 0.6053
- 1MT vs Control: Trifunctional enzyme subunit alpha, mitochondrial (Q8BMS1, GN = Hadha): 0.561
- 1MT vs Control: Isoleucine--tRNA ligase, cytoplasmic (Q8BU30, GN = Iars): 0.75
- 1MT vs Control: Fructose-2,6-bisphosphatase TIGAR (Q8BZA9, GN = Tigar): 0.6944
- 1MT vs Control: Succinate dehydrogenase [ubiquinone] flavoprotein subunit, mitochondrial (Q8K2B3, GN = Sdha): 0.7037
- 1MT vs Control: 5-oxoprolinase (Q8K010, GN = Oplah): 0.75
- 1MT vs Control: Acetyl-CoA acetyltransferase, mitochondrial (Q8QZT1, GN = Acat1): 0.9231
- 1MT vs Control: Sarcoplasmic/endoplasmic reticulum calcium ATPase 1 (Q8R429, GN = Atp2a1): 0.9045
- 1MT vs Control: Carboxylesterase 1D (Q8VCT4, GN = Ces1d): 0.8571
- 1MT vs Control: G-protein coupled receptor 98 (Q8VHN7, GN = Gpr98): 0.6667
- 1MT vs Control: 2,4-dienoyl-CoA reductase, mitochondrial (Q9CQ62, GN = Decr1): 0.375
- 1MT vs Control: Succinyl-CoA: 3-ketoacid coenzyme A transferase 1, mitochondrial (Q9D0K2, GN = Oxct1): 0.75
- 1MT vs Control: Cytosolic non-specific dipeptidase (Q9D1A2, GN = Cndp2): 0.8
- 1MT vs Control: Protein-cysteine N-palmitoyltransferase HHAT-like protein (Q9D1G3, GN = Hhatl): 0.4545
- 1MT vs Control: Dihydrolipoyllysine-residue succinyltransferase component of 2-oxoglutarate dehydrogenase complex, mitochondrial (Q9D2G2, GN = Dlst): 0.4857
- 1MT vs Control: Ribose-phosphate pyrophosphokinase 1 (Q9D7G0, GN = Prps1): 0.8723
- 1MT vs Control: Pyruvate dehydrogenase E1 component subunit beta, mitochondrial (Q9D051, GN = Pdhb): 0.6279
- 1MT vs Control: 14 kDa phosphohistidine phosphatase (Q9DAK9, GN = Phpt1): 0.75
- 1MT vs Control: Trans-1,2-dihydrobenzene-1,2-diol dehydrogenase (Q9DBB8, GN = Dhdh): 0.8333
- 1MT vs Control: Methylmalonate-semialdehyde dehydrogenase [acylating], mitochondrial (Q9EQ20, GN = Aldh6a1): 0.65
- 1MT vs Control: Ubiquitin carboxyl-terminal hydrolase 14 (Q9JMA1, GN = Usp14): 0.8
- 1MT vs Control: Prolyl endopeptidase (Q9QUR6, GN = Prep): 0.5
- 1MT vs Control: S-formylglutathione hydrolase (Q9R0P3, GN = Esd): 0.8929
- 1MT vs Control: Glycogen phosphorylase, muscle form (Q9WUB3, GN = Pygm): 0.9185
- 1MT vs Control: Succinyl-CoA ligase [ADP-forming] subunit beta, mitochondrial (Q9Z2I9, GN = Sucla2): 0.52
- 1MT vs Control: NADH dehydrogenase [ubiquinone] flavoprotein 1, mitochondrial (Q91YT0, GN = Ndufv1): 0.4
Structure (SMILES): Cn1cc(C[C@@H](N)C(=O)O)c2ccccc21 [1MT]
- 1MT vs Control: Peroxiredoxin-6 (O08709, GN = Prdx6): 0.7083
- 1MT vs Control: Proteasome subunit beta type-1 (O09061, GN = Psmb1): 0.5556
- 1MT vs Control: Calsequestrin-1 (O09165, GN = Casq1): 0.9036
- 1MT vs Control: Protein NipSnap homolog 2 (O55126, GN = Gbas): 0.5294
- 1MT vs Control: Voltage-dependent calcium channel gamma-1 subunit (O70578, GN = Cacng1): 0.75
- 1MT vs Control: Reticulon-2 (O70622, GN = Rtn2): 0.3
- 1MT vs Control: Alpha-actinin-3 (O88990, GN = Actn3): 0.8638
- 1MT vs Control: Complement C3 (P01027, GN = C3): 0.5294
- 1MT vs Control: Hemoglobin subunit alpha (P01942, GN = Hba): 0.5714
- 1MT vs Control: Hemoglobin subunit beta-1 (P02088, GN = Hbb-b1): 0.688
- 1MT vs Control: Myoglobin (P04247, GN = Mb): 0.381
- 1MT vs Control: Myosin light chain 1/3, skeletal muscle isoform (P05977, GN = Myl1): 0.7007
- 1MT vs Control: Serum albumin (P07724, GN = Alb): 0.8778
- 1MT vs Control: Serine protease inhibitor A3K (P07759, GN = Serpina3k): 0.5238
- 1MT vs Control: Eukaryotic initiation factor 4A-II (P10630, GN = Eif4a2): 0.6
- 1MT vs Control: Thioredoxin (P10639, GN = Txn): 0.6154
- 1MT vs Control: Heat shock protein beta-1 (P14602, GN = Hspb1): 0.5385
- 1MT vs Control: Annexin A6 (P14824, GN = Anxa6): 0.7045
- 1MT vs Control: Cathepsin D (P18242, GN = Ctsd): 0.8
- 1MT vs Control: Parvalbumin alpha (P32848, GN = Pvalb): 0.7209
- 1MT vs Control: Peroxiredoxin-1 (P35700, GN = Prdx1): 0.9138
- 1MT vs Control: Stress-70 protein, mitochondrial (P38647, GN = Hspa9): 0.4
- 1MT vs Control: ATP synthase subunit beta, mitochondrial (P56480, GN = Atp5b): 0.6321
- 1MT vs Control: Elongation factor 1-delta (P57776, GN = Eef1d): 0.8
- 1MT vs Control: 14-3-3 protein gamma (P61982, GN = Ywhag): 0.5417
- 1MT vs Control: Cytochrome c, somatic (P62897, GN = Cycs): 0.7778
- 1MT vs Control: Profilin-1 (P62962, GN = Pfn1): 0.8333
- 1MT vs Control: 60 kDa heat shock protein, mitochondrial (P63038, GN = Hspd1): 0.2222
- 1MT vs Control: Eukaryotic translation initiation factor 5A-1 (P63242, GN = Eif5a): 0.8936
- 1MT vs Control: Spermine synthase (P97355, GN = Sms): 0.5455
- 1MT vs Control: Myosin regulatory light chain 2, skeletal muscle isoform (P97457, GN = Mylpf): 0.6453
- 1MT vs Control: 60S acidic ribosomal protein P2 (P99027, GN = Rplp2): 0.7143
- 1MT vs Control: Tripartite motif-containing protein 72 (Q1XH17, GN = Trim72): 0.9048
- 1MT vs Control: Secernin-3 (Q3TMH2, GN = Scrn3): 0.6667
- 1MT vs Control: Trimeric intracellular cation channel type A (Q3TMP8, GN = Tmem38a): 0.6923
- 1MT vs Control: PDZ and LIM domain protein 5 (Q8CI51, GN = Pdlim5): 0.6667
- 1MT vs Control: Phosphate carrier protein, mitochondrial (Q8VEM8, GN = Slc25a3): 0.3333
- 1MT vs Control: Bifunctional purine biosynthesis protein PURH (Q9CWJ9, GN = Atic): 0.8571
- 1MT vs Control: Cytochrome b-c1 complex subunit 1, mitochondrial (Q9CZ13, GN = Uqcrc1): 0.25
- 1MT vs Control: Citrate synthase, mitochondrial (Q9CZU6, GN = Cs): 0.5333
- 1MT vs Control: 60S ribosomal protein L4 (Q9D8E6, GN = Rpl4): 0.6667
- 1MT vs Control: Cytochrome b-c1 complex subunit 2, mitochondrial (Q9DB77, GN = Uqcrc2): 0.3958
- 1MT vs Control: Electron transfer flavoprotein subunit beta (Q9DCW4, GN = Etfb): 0.5
- 1MT vs Control: Plectin (Q9QXS1, GN = Plec): 0.4894
- 1MT vs Control: Vesicle-associated membrane protein-associated protein B (Q9QY76, GN = Vapb): 0.5333
- 1MT vs Control: Proteasome subunit alpha type-1 (Q9R1P4, GN = Psma1): 0.375
- 1MT vs Control: Glycogen [starch] synthase, muscle (Q9Z1E4, GN = Gys1): 0.6275
- 1MT vs Control: Nucleosome assembly protein 1-like 4 (Q78ZA7, GN = Nap1l4): 0.8571
- 1MT vs Control: Hemopexin (Q91X72, GN = Hpx): 0.7391
